Experimental data as given in PubChem BioAssay (NCI).
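How tested: cells in 96-well plates exposed to compound for 48 hours at five concentrations. GI50: concentration for 50% inhibition of growth. TGI: concentration producing complete growth inhibition.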

Assays:
Experiment in all cases: inhibition of tumour cell growth, NCI panel, 48 h
KM12 colon = system: KM12 colon
OVCAR-4 ovarian = system: OVCAR-4 ovarian
SW-620 colon = system: SW-620 colon
A549 NSCLC = system: A549 NSCLC
HCC-2998 colon = system: HCC-2998 colon
HS 578T breast = system: HS 578T breast
ACHN renal = system: ACHN renal
HOP-92 NSCLC = system: HOP-92 NSCLC
HCT-15 colon = system: HCT-15 colon
NCI-H522 lung = system: NCI-H522 lung

| SMILES | TGI (KM12 colon) [µM] | TGI (OVCAR-4 ovarian) [µM] | TGI (SW-620 colon) [µM] | TGI (A549 NSCLC) [µM] | TGI (HCC-2998 colon) [µM] | TGI (HS 578T breast) [µM] | TGI (ACHN renal) [µM] | TGI (HOP-92 NSCLC) [µM] | TGI (HCT-15 colon) [µM] | TGI (NCI-H522 lung) [µM] | GI50 (HCT-15 colon) [µM] | GI50 (KM12 colon) [µM] | GI50 (OVCAR-4 ovarian) [µM] | GI50 (SW-620 colon) [µM] | GI50 (NCI-H522 lung) [µM] | GI50 (A549 NSCLC) [µM] | GI50 (HCC-2998 colon) [µM] | GI50 (ACHN renal) [µM] |
| --- | --- | --- | --- | --- | --- | --- | --- | --- | --- | --- | --- | --- | --- | --- | --- | --- | --- | --- |
| CCc1ccccc1NNc1cc(=O)[nH]c(=O)[nH]1 | 36 | 38 | 37.3 | 57.3 | 40.1 | 68.6 | 32.7 | 31.3 | – | – | – | – | – | – | – | – | – | – |
| C=CCOCn1cc(C)c(=O)[nH]c1=O | > 100 | – | > 100 | > 100 | > 100 | > 100 | > 100 | – | > 100 | 50.2 | – | – | – | – | – | – | – | – |
| O=C(OCC(Cl)(Cl)Cl)O[C@@H]1CCCC1(c1ccccc1)c1ccccc1 | > 100 | > 100 | > 100 | > 100 | > 100 | – | > 100 | – | > 100 | > 100 | – | – | – | – | – | – | – | – |
| Cc1cc(=O)[nH]c(NN2C(Cl)C(=O)C2c2cccc(Cl)c2)n1 (configuration not stated) | 67 | 97 | > 100 | > 100 | 98.9 | – | > 100 | 41.5 | 40.9 | – | – | – | – | – | – | – | – | – |
| O=C(NNc1nc(-c2ccccc2)cs1)C(F)(F)F | > 100 | > 100 | > 100 | > 100 | > 100 | 52.2 | > 100 | – | > 100 | > 100 | – | – | – | – | – | – | – | – |
| CCOC(=O)N(c1ccccc1)N(CC)C(=O)/C(C)=N/Nc1ccc([N+](=O)[O-])cc1 | 29.2 | 42.2 | 36.7 | 33.9 | 32.5 | – | 40.9 | 30.3 | 30.3 | 29.3 | – | – | – | – | – | – | – | – |
| COc1cc2nc(-c3cccs3)[nH]c(=O)c2cc1OC | > 100 | > 100 | > 100 | > 100 | – | > 100 | > 100 | > 100 | > 100 | > 100 | – | – | – | – | – | – | – | – |
| Cc1ccc(NC(=O)C(=O)CC(=O)c2sc(Nc3c(C)cccc3C)nc2C)cc1C | > 100 | > 100 | > 100 | > 100 | > 100 | > 100 | > 100 | > 100 | > 100 | > 100 | – | – | – | – | – | – | – | – |
| N#C/C(=C/NC(=S)c1ccncc1)C(N)=O | > 100 | > 100 | > 100 | > 100 | > 100 | – | > 100 | > 100 | > 100 | – | – | – | – | – | – | – | – | – |
| O=c1[nH]cnc2c1nnn2CCCCCCCCCCCCn1nnc2c(=O)[nH]cnc21 | > 100 | > 100 | > 100 | > 100 | > 100 | 60.7 | > 100 | 53 | > 100 | 63 | – | – | – | – | – | – | – | – |
| COc1ccc(C(C2=C(O)COC2=O)c2cc3c(cc2O)OCO3)cc1OC (configuration not stated) | > 100 | > 100 | > 100 | > 100 | > 100 | > 100 | > 100 | > 100 | > 100 | – | – | – | – | – | – | – | – | – |
| S=C(Nc1ccc2cn[nH]c2c1)Nc1ccc2cn[nH]c2c1 | > 100 | > 100 | > 100 | > 100 | > 100 | > 100 | > 100 | > 100 | > 100 | > 100 | – | – | – | – | – | – | – | – |
| CC(C)(C)OC(=O)NCCCCC(NC(=O)c1ccccc1)C(N)=O (configuration not stated) | > 100 | > 100 | > 100 | > 100 | – | > 100 | > 100 | – | > 100 | > 100 | – | – | – | – | – | – | – | – |
| CC(C)(C)N(Cc1ccc2c(c1)OCO2)C(=O)/C=C\Sc1ccccc1 | > 100 | > 100 | > 100 | > 100 | > 100 | – | > 100 | 91 | > 100 | 59 | – | – | – | – | – | – | – | – |
| CCOC(=O)C1=C(C)N(c2ccc(OC)cc2)C2(O)C=CC(=O)C3=C(O)c4ccccc4C(=O)C312 (configuration not stated) | 29.2 | 10.9 | 29.8 | 36.2 | – | 33.5 | 39.3 | 9.75 | 20.9 | 11.9 | – | – | – | – | – | – | – | – |
| C[Si](C)(c1ccccc1)[C@H]1CCCC=C1CCNC1c2ccccc2CCc2ccccc21 | > 100 | > 100 | > 100 | > 100 | > 100 | > 100 | > 100 | > 100 | > 100 | > 100 | – | – | – | – | – | – | – | – |
| O=C1Nc2ccccc2Nc2ccncc21 | > 100 | > 100 | > 100 | > 100 | > 100 | – | – | > 100 | > 100 | > 100 | – | – | – | – | – | – | – | – |
| CC(=O)[CH-]C(=O)c1ccccc1.CC(=O)[CH-]C(=O)c1ccccc1.C[C@]12CCC(=O)C=C1CC[C@@H]1C2CC[C@@]2(C)C1CC[C@]2(C)[O-].C[C@]12CCC(=O)C=C1CC[C@@H]1C2CC[C@@]2(C)C1CC[C@]2(C)[O-].Cl.[Ti+4] (some centres not stated) | 71.3 | > 100 | 30 | 40.3 | 41.7 | – | 87.8 | – | 52.4 | 35.7 | 6.49 | 13.5 | 42.7 | 3.91 | 11.4 | 16.1 | 17.3 | 21.6 |
| O=C(CCc1ccccc1)ON1C(=S)C(c2ccccc2)(c2ccccc2)N=C1Sc1ccccc1 | > 100 | > 100 | – | > 100 | > 100 | > 100 | > 100 | > 100 | > 100 | – | – | – | – | – | – | – | – | – |
| O=C1C(CN2CCOCC2)CCCC1CN1CCOCC1 (configuration not stated) | 17.8 | 5.44 | 0.911 | 55.4 | 10.3 | 75.9 | 3.53 | 1.97 | 3.2 | 0.156 | – | – | – | – | – | – | – | – |
| COc1cc(-c2ccccc2N)c2cccnc2c1OC | 24.3 | 19.6 | 17.4 | 16.1 | – | 11.9 | 15.2 | 22.3 | 16.1 | 17.9 | – | – | – | – | – | – | – | – |
| C[C@@H]1S[C@H](c2c(Cl)cccc2Cl)N2Cc3ccccc3N=C12 | > 100 | > 100 | > 100 | > 100 | > 100 | > 100 | > 100 | > 100 | > 100 | – | – | – | – | – | – | – | – | – |
